The record followed here is patent US12590091B2, “1H-pyrrolo[3,2-C]pyridine and 1H-pyrrolo[2,3-C]pyridine derivatives as TLR9 inhibitors for the treatment of fibrosis” (BRISTOL-MYERS SQUIBB COMPANY, priority 2020, dated 2026).

Each structure is given as a SMILES string. pIC50: −log10 of the molar value.

The target in this assay is T1, human TLR8 (Homo sapiens, UniProt Q9NR97).
T1 construct: host or cells: HEK-Blue cells
T1 sequence (Q9NR97 27-1041): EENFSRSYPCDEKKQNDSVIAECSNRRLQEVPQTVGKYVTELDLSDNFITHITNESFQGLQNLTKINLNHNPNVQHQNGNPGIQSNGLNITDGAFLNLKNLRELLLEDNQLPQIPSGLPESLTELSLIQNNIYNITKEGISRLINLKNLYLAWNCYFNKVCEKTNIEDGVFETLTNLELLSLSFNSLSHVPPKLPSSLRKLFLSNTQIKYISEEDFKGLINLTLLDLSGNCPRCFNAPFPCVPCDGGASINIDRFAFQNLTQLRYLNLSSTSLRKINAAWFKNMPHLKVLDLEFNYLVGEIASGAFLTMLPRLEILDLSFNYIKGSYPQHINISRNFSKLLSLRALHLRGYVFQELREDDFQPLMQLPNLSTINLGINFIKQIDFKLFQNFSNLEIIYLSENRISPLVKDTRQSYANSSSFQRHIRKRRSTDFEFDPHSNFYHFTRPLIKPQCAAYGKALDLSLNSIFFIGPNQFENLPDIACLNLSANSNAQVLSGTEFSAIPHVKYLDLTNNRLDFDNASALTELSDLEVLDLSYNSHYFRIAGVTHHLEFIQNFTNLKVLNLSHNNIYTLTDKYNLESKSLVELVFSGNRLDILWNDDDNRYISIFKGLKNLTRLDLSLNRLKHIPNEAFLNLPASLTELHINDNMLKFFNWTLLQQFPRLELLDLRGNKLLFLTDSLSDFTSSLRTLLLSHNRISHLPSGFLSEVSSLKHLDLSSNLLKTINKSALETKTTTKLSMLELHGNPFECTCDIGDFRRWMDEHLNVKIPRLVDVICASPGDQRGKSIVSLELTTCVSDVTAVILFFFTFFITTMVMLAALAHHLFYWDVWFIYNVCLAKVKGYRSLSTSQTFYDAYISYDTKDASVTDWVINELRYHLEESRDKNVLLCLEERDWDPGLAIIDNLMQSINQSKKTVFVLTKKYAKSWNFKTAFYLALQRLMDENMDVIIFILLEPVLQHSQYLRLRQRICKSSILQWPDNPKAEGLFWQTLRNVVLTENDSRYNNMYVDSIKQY
The assay can be described thus: TLR8 inhibition reporter assay (HEK-Blue cells, SEAP reporter). As to conditions: HEK-Blue cells overexpressing human TLR8, stimulated with R848 15.9 μM, 22 hour incubation. The class given is cell-based. The protocol:
TLR7/8/9 Inhibition Reporter Assays
HEK-Blue™-cells (Invivogen) overexpressing human TLR7, TLR8 or TLR9 receptors were used for screening inhibitors of these receptors using an inducible SEAP (secreted embryonic alkaline phosphatase) reporter gene under the control of the IFN-β minimal promoter fused to five NF-κB and AP-1-binding sites. Briefly, cells are seeded into Greiner 384 well plates (15000 cells per well for TLR7, 20,000 for TLR8 and 25,000 for TLR9) and then treated with test compounds in DMSO to yield a final dose response concentration range of 0.05 nM-50 μM. After a 30 minute compound pre-treatment at room temperature, the cells are then stimulated with a TLR7 ligand (gardiquimod at a final concentration of 7.5 μM), TLR8 ligand (R848 at a final concentration of 15.9 μM) or TLR9 ligand (ODN2006 at a final concentration of 5 nM) to activate NF-κB and AP-1 which induce the production of SEAP. After a 22 hour incubation at 37° C., 5% CO2, SEAP levels are determined with the addition of HEK-Blue™ Detection reagent (Invivogen), a cell culture medium that allows for detection of SEAP, according to manufacturer's specifications. The percent inhibition is determined as the % reduction in the HEK-Blue signal present in wells treated with agonist plus DMSO alone compared to wells treated with a known inhibitor.
In turn, `Cc1nc(-c2ccc(CN3C[C@@H]4CC[C@H]3CN4CCC(C)(C)O)cc2)cc2c1cc(-c1ccc(S(C)(=O)=O)cc1)n2C` [Example 61, 4-((1S,4S)-5-(4-(1,4-dimethyl-2-(4-(methylsulfonyl)phenyl)-1H-pyrrolo[3,2-c]pyridin-6-yl)benzyl)-2,5-diazabicyclo[2.2.2]octan-2-yl)-2-methylbutan-2-ol] gave a pIC50 of 6.07.
Then `Cc1nc(-c2ccc(N3CCN(CCO)CC3)c(F)c2)cc2c1cc(-c1ccc(S(C)(=O)=O)cc1)n2C` [Example 69, 2-(4-(4-(1,4-dimethyl-2-(4-(methylsulfonyl)phenyl)-1H-pyrrolo[3,2-c]pyridin-6-yl)-2-fluorophenyl)piperazin-1-yl)ethan-1-ol], with less than 4.60; and `Cc1nc(-c2ccc(N3CCN(C4CCOC4)CC3)c(F)c2)cc2c1cc(-c1ccc(S(C)(=O)=O)cc1)n2C` (stereo not drawn) [Example 70, 6-(3-fluoro-4-(4-(tetrahydrofuran-3-yl)piperazin-1-yl)phenyl)-1,4-dimethyl-2-(4-(methylsulfonyl)phenyl)-1H-pyrrolo[3,2-c]pyridine], with less than 4.60; and `COCCN1C2CCC1CN(c1ccc(-c3cc4c(cc(-c5ccc(S(C)(=O)=O)cc5)n4C)c(C)n3)cc1)C2` [Example 74, 6-(4-(8-(2-methoxyethyl)-3,8-diazabicyclo[3.2.1]octan-3-yl)phenyl)-1,4-dimethyl-2-(4-(methylsulfonyl)phenyl)-1H-pyrrolo[3,2-c]pyridine], with 4.71.
The same measure for `COCCN1C2CCC1CN(c1ccc(-c3cc4c(cc(-c5ccc(S(C)(=O)=O)cc5)n4C)c(C)n3)cc1F)C2` [Example 75, 6-(3-fluoro-4-(8-(2-methoxyethyl)-3,8-diazabicyclo[3.2.1]octan-3-yl)phenyl)-1,4-dimethyl-2-(4-(methylsulfonyl)phenyl)-1H-pyrrolo[3,2-c]pyridine]: 5.02; for `Cc1nc(-c2ccc(N3CC4CCC(C3)N4CCCO)cc2)cc2c1cc(-c1ccc(S(C)(=O)=O)cc1)n2C` [Example 76, 3-(3-(4-(1,4-dimethyl-2-(4-(methylsulfonyl)phenyl)-1H-pyrrolo[3,2-c]pyridin-6-yl)phenyl)-3,8-diazabicyclo[3.2.1]octan-8-yl)propan-1-ol]: 4.74; for `Cc1nc(-c2ccc(N3CC4CCC(C3)N4CCCO)c(F)c2)cc2c1cc(-c1ccc(S(C)(=O)=O)cc1)n2C` [Example 77, 3-(3-(4-(1,4-dimethyl-2-(4-(methylsulfonyl)phenyl)-1H-pyrrolo[3,2-c]pyridin-6-yl)-2-fluorophenyl)-3,8-diazabicyclo[3.2.1]octan-8-yl)propan-1-ol]: 4.72.
The same measure for `COCCN1C2CCC1CN(c1cc(F)c(-c3cc4c(cc(-c5ccc(S(C)(=O)=O)cc5)n4C)c(C)n3)cc1F)C2` [Example 78, 6-(2,5-difluoro-4-(8-(2-methoxyethyl)-3,8-diazabicyclo[3.2.1]octan-3-yl)phenyl)-1,4-dimethyl-2-(4-(methylsulfonyl)phenyl)-1H-pyrrolo[3,2-c]pyridine]: 5.03; for `Cc1nc(-c2cc(F)c(N3CC4CCC(C3)N4CCCO)cc2F)cc2c1cc(-c1ccc(S(C)(=O)=O)cc1)n2C` [Example 79, 3-(3-(4-(1,4-dimethyl-2-(4-(methylsulfonyl)phenyl)-1H-pyrrolo[3,2-c]pyridin-6-yl)-2,5-difluorophenyl)-3,8-diazabicyclo[3.2.1]octan-8-yl) propan-1-ol]: 5.02.
Molecule `Cc1nc(-c2ccc(N3CCN(CC(C)C)CC3)c(F)c2F)cc2c1cc(-c1ccc(S(C)(=O)=O)cc1)n2C` [Example 82, 6-(2,3-difluoro-4-(4-isobutylpiperazin-1-yl)phenyl)-1,4-dimethyl-2-(4-(methylsulfonyl)phenyl)-1H-pyrrolo[3,2-c]pyridine] gave a pIC50 of less than 4.30.
`Cc1nc(-c2ccc(C3(O)CCN(C4CC4)CC3)cc2)cc2c1cc(-c1ccc(S(C)(=O)=O)cc1)n2C` [Example 87, 1-cyclopropyl-4-(4-(1,4-dimethyl-2-(4-(methylsulfonyl)phenyl)-1H-pyrrolo[3,2-c]pyridin-6-yl)phenyl)piperidin-4-ol] showed a negative-log IC50 (pIC50) of 5.40.
Then `Cc1nc(-c2ccc(C3(O)CCN(C(C)C)CC3)cc2)cc2c1cc(-c1ccc(S(C)(=O)=O)cc1)n2C` [Example 88, 4-(4-(1,4-dimethyl-2-(4-(methylsulfonyl)phenyl)-1H-pyrrolo[3,2-c]pyridin-6-yl)phenyl)-1-isopropylpiperidin-4-ol], with 4.98; and `Cc1nc(-c2ccc(N3CCN4CCCC4C3)c(F)c2F)cc2c1cc(-c1ccc(S(C)(=O)=O)cc1)n2C` (stereo not drawn) [Example 99, 6-(2,3-difluoro-4-(hexahydropyrrolo[1,2-a]pyrazin-2(1H)-yl)phenyl)-1,4-dimethyl-2-(4-(methylsulfonyl)phenyl)-1H-pyrrolo[3,2-c]pyridine], with 5.22; and `Cc1nc(-c2ccc(C3(O)CC4CCC(C3)N4C(C)C)c(F)c2)cc2c1cc(-c1ccc(S(C)(=O)=O)cc1)n2C` [Example 100, (1R,3r,5S)-3-(4-(1,4-dimethyl-2-(4-(methylsulfonyl)phenyl)-1H-pyrrolo[3,2-c]pyridin-6-yl)-2-fluorophenyl)-8-isopropyl-8-azabicyclo[3.2.1]octan-3-ol], with 5.89.
For `CCN1C2CCC1CC(O)(c1ccc(-c3cc4c(cc(-c5ccc(S(C)(=O)=O)cc5)n4C)c(C)n3)cc1F)C2` [Example 101, (1R,3r,5S)-3-(4-(1,4-dimethyl-2-(4-(methylsulfonyl)phenyl)-1H-pyrrolo[3,2-c]pyridin-6-yl)-2-fluorophenyl)-8-ethyl-8-azabicyclo[3.2.1]octan-3-ol], the pIC50 is 5.29.
The same measure for `Cc1nc(-c2ccc(C3(O)CC4CCC(C3)N4C)c(F)c2)cc2c1cc(-c1ccc(S(C)(=O)=O)cc1)n2C` [Example 102, (1R,3r,5S)-3-(4-(1,4-dimethyl-2-(4-(methylsulfonyl)phenyl)-1H-pyrrolo[3,2-c]pyridin-6-yl)-2-fluorophenyl)-8-methyl-8-azabicyclo[3.2.1]octan-3-ol]: 6.00; for `Cc1nc(-c2ccc(C3(O)CCN(C(C)(C)C)CC3)c(F)c2)cc2c1cc(-c1ccc(S(C)(=O)=O)cc1)n2C` [Example 104, 1-(tert-butyl)-4-(4-(1,4-dimethyl-2-(4-(methylsulfonyl)phenyl)-1H-pyrrolo[3,2-c]pyridin-6-yl)-2-fluorophenyl)piperidin-4-ol]: 5.68; for `Cc1nc(-c2ccc([C@@]3(O)CCN(C(C)C)C(C)(C)C3)c(F)c2)cc2c1cc(-c1ccc(S(C)(=O)=O)cc1)n2C` [Example 105, (R)-4-(4-(1,4-dimethyl-2-(4-(methylsulfonyl)phenyl)-1H-pyrrolo[3,2-c]pyridin-6-yl)-2-fluorophenyl)-1-isopropyl-2,2-dimethylpiperidin-4-ol]: 6.70.
Then `Cc1nc(-c2ccc([C@]3(O)CCN(C(C)C)C(C)(C)C3)c(F)c2)cc2c1cc(-c1ccc(S(C)(=O)=O)cc1)n2C` [Example 106, (S)-4-(4-(1,4-dimethyl-2-(4-(methylsulfonyl)phenyl)-1H-pyrrolo[3,2-c]pyridin-6-yl)-2-fluorophenyl)-1-isopropyl-2,2-dimethylpiperidin-4-ol], with 6.15.
`Cc1nc(-c2ccc(C3(O)CCN(C(C)C)CC3)c(F)c2)cc2c1cc(-c1ccc(S(C)(=O)=O)cc1)n2C` [Example 107, 4-(4-(1,4-dimethyl-2-(4-(methylsulfonyl)phenyl)-1H-pyrrolo[3,2-c]pyridin-6-yl)-2-fluorophenyl)-1-isopropylpiperidin-4-ol]: the pIC50 is 5.57.
The same measure for `Cc1nc(-c2ccc(C3(O)CCN(C(C)(C)C)CC3)cc2F)cc2c1cc(-c1ccc(S(C)(=O)=O)cc1)n2C` [Example 108, 1-(tert-butyl)-4-(4-(1,4-dimethyl-2-(4-(methylsulfonyl)phenyl)-1H-pyrrolo[3,2-c]pyridin-6-yl)-3-fluorophenyl)piperidin-4-ol]: 5.82.

The pIC50 is the IC50 on a negative log10 scale, so that one unit is a factor of ten. Low readings indicate a high IC50, high ones a low IC50.
